The text below walks through data of patent US11439648B2, “Use of topical BRAF inhibitor compositions for treatment of radiation dermatitis” (Lutris Pharma Ltd., priority 2019, dated 2022).

The assay concerns MIA PaCa2 K-ras cells. Briefly: Proliferation of MIA PaCa cells (ATPlite proliferation kit). Format: cell-based. Particulars: after 72 hours; concentration giving the highest proliferation (range 0.002 μM to 10 μM); starvation medium; average of 6 wells; presented as percent of over-proliferation vs DMSO control. How it is done: In this example, effect of the compounds on proliferation of MIA PaCa2 K-ras cells was studied. It was expected that the compounds that induce ERK phosphorylation would also induce proliferation of Mia PaCa cells.
The cells were seeded in starvation medium at 5000 cells/well in a 96 wells plate for 24 hours at 37° C., 5% CO2. The tested compounds were added at different concentrations ranging from 0.002 μM to 10 μM. The controls were untreated cells and vehicle of 0.1% DMSO. The cells were incubated at 37° C., 5% CO2, for 72 hours and then the proliferation was tested using the ATPlite proliferation kit (Perkin-Elmer). Each result represents an average of 6 wells. The results are presented as the percent of over-proliferation compared to the DMSO control.
The concentration of the compounds that provided the highest proliferation was compared to DMSO. DMSO was calculated as 100%.
Background: In ATP-based viability assays light output follows the ATP content of the culture.
Turning to `Cc1ccc2c(Nc3ccc(Cl)cc3)nccc2c1Nc1ncccc1-c1ncnc2[nH]cnc12` [C-1], the “% proliferation compared to the DMSO control” value (“% proliferation” below) was 30%.

Take `Cc1ccc2c(Nc3cccc(OC(F)(F)F)c3)nccc2c1Nc1ncccc1-c1ncnc2[nH]cnc12` [LUT014]: the “% proliferation” value is given as 116%.

For `CCCS(=O)(=O)Nc1ccc(F)c(C(=O)c2c[nH]c3ncc(-c4ccc(Cl)cc4)cc23)c1F` [Vemurafenib], the “% proliferation” value was 12%.
